Experimental data published in patent US10584115B2, “Substituted pyridine and pyrazine BMI-1 inhibitors” (PTC Therapeutics, Inc., priority 2013, dated 2020).
Read-outs that look alike come from different tables or passages of the source.

What was measured:
Bmi-1 protein = assay: Sandwich ELISA Assay (Bmi-1 protein level in HT-1080 cells after compound treatment); assay type: cell-based
In short: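 HT-1080 cells exposed to compounds for 40–48 h at 37 °C (0.5% DMSO final), then lysed. Bmi-1 in lysates measured by sandwich ELISA (mouse monoclonal capture, rabbit anti-Bmi-1 detection, HRP anti-rabbit, TMB), read at OD450 with OD570 reference against a recombinant Bmi-1 standard curve (0–8000 pg/mL).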

[1] = Table 1, Bmi-1 sandwich ELISA, read-out: ELISA EC50 value for Bmi-1 protein
[2] = read-out: ELISA EC50 value for Bmi-1 protein, Table 1, Bmi-1 sandwich ELISA

EC50 (Bmi-1 protein; [1]) [nM] | melting point [°C] | SMILES | EC50 (Bmi-1 protein; [2]) [nM]
1 to 10 | 221 to 223 | Cc1nc2ccc(F)cn2c1-c1cc(C#N)cc(Nc2ccc(OC(F)F)cc2)n1 [compound 248, 2-{[4-(difluoromethoxy)phenyl]amino}-6-(6-fluoro-2-methylimidazo[1,2-a]pyridin-3-yl)pyridine-4-carbonitrile] | 
10 to 100 | 209 to 210 | Cc1nc2ccc(F)cn2c1-c1cc(C#N)cc(Nc2ccc(OC(F)(F)F)cc2)n1 [compound 249, 2-(6-fluoro-2-methylimidazo[1,2-a]pyridin-3-yl)-6-{[4-(trifluoromethoxy)phenyl]amino}pyridine-4-carbonitrile] | 
100 to 3000 | 213 to 215 | FC(F)(F)Oc1ccc(Nc2cncc(-c3c(C4CC4)nc4ccc(C(F)(F)F)cn34)n2)cc1 [compound 252, 6-[2-cyclopropyl-6-(trifluoromethyl)imidazo[1,2-a]pyridin-3-yl]-N-[4-(trifluoromethoxy)phenyl]pyrazin-2-amine] | 
1 to 10 | 267 to 269 | CCc1nc2ccc(F)cc2n1-c1cncc(Nc2ccc(C(F)(F)F)cc2)n1 [compound 259, 6-(2-ethyl-6-fluoro-1H-benzimidazol-1-yl)-N-[4-(trifluoromethyl)phenyl]pyrazin-2-amine] | 
1 to 10 | 205 to 207 | CCc1nc2ccc(F)cc2n1-c1cncc(Nc2ccc(OC(F)F)cc2)n1 [compound 260, N-[4-(difluoromethoxy)phenyl]-6-(2-ethyl-6-fluoro-1H-benzimidazol-1-yl)pyrazin-2-amine] | 
10 to 100 | 223 to 225 | Cc1nc2ccc(F)cc2n1-c1cc(C#N)cc(Nc2ccc(C(F)(F)F)cc2)n1 [compound 261, 2-(6-fluoro-2-methyl-1H-benzimidazol-1-yl)-6-{[4-(trifluoromethyl)phenyl]amino}pyridine-4-carbonitrile] | 
10 to 100 | 231 to 232 | Cc1nc2ccc(F)cc2n1-c1cc(C#N)cc(Nc2ccc(OC(F)F)cc2)n1 [compound 262, 2-{[4-(difluoromethoxy)phenyl]amino}-6-(6-fluoro-2-methyl-1H-benzimidazol-1-yl)pyridine-4-carbonitrile] | 
1 to 10 | 182 to 183 | Cc1nn(C)c(C)c1-c1cc(C#N)cc(Nc2ccc(C(F)(F)F)cc2)n1 [compound 263, 2-{[4-(trifluoromethyl)phenyl]amino}-6-(1,3,5-trimethyl-1H-pyrazol-4-yl)pyridine-4-carbonitrile] | 
1 to 10 | 144 to 145 | Cc1nn(C)c(C)c1-c1cc(C#N)cc(Nc2ccc(OC(F)F)cc2)n1 [compound 264, 2-{[4-(difluoromethoxy)phenyl]amino}-6-(1,3,5-trimethyl-1H-pyrazol-4-yl)pyridine-4-carbonitrile] | 
10 to 100 | 135 to 136 | Cc1nn(C)c(C)c1-c1cc(C#N)cc(Nc2ccc(OC(F)(F)F)cc2)n1 [compound 265, 2-{[4-(trifluoromethoxy)phenyl]amino}-6-(1,3,5-trimethyl-1H-pyrazol-4-yl)pyridine-4-carbonitrile] | 
100 to 3000 | 199 to 200 | CC(=O)n1nc(C)c(-c2cncc(Nc3ccc(C(F)(F)F)cc3)n2)c1C [compound 277, 1-[3,5-dimethyl-4-(6-{[4-(trifluoromethyl)phenyl]amino}pyrazin-2-yl)-1H-pyrazol-1-yl]ethanone] | 
100 to 3000 | 122 to 123 | CCOC(=O)n1nc(C)c(-c2cncc(Nc3ccc(C(F)(F)F)cc3)n2)c1C [compound 278, ethyl 3,5-dimethyl-4-(6-{[4-(trifluoromethyl)phenyl]amino}pyrazin-2-yl)-1H-pyrazole-1-carboxylate] | 
100 to 3000 | 92 to 93 | CCOC(=O)n1nc(C)c(-c2cncc(Nc3ccc(OC(F)F)cc3)n2)c1C [compound 279, ethyl 4-(6-{[4-(difluoromethoxy)phenyl]amino}pyrazin-2-yl)-3,5-dimethyl-1H-pyrazole-1-carboxylate] | 
100 to 3000 | 157 to 158 | Cc1c(-c2cncc(Nc3ccc(OC(F)(F)F)cc3)n2)c(C(F)(F)F)nn1C [compound 281, 6-[1,5-dimethyl-3-(trifluoromethyl)-1H-pyrazol-4-yl]-N-[4-(trifluoromethoxy)phenyl]pyrazin-2-amine] | 
10 to 100 | 216 to 218 | Cc1nc2ccc(F)cn2c1-c1cncc(Nc2ccc(C(F)(F)F)c(F)c2)n1 [compound 310, 6-(6-fluoro-2-methylimidazo[1,2-a]pyridin-3-yl)-N-[3-fluoro-4-(trifluoromethyl)phenyl]pyrazin-2-amine] | 
1 to 10 | 231 to 233 | Cc1nc2ccc(F)cn2c1-c1cc(C#N)cc(Nc2ccc(OC(F)F)c(F)c2)n1 [compound 311, 2-{[4-(difluoromethoxy)-3-fluorophenyl]amino}-6-(6-fluoro-2-methylimidazo[1,2-a]pyridin-3-yl)pyridine-4-carbonitrile] | 
10 to 100 | 245 to 249 | Cc1nc2ccc(F)cn2c1-c1cc(C#N)cc(Nc2ccc(C(F)(F)F)c(F)c2)n1 [compound 312, 2-(6-fluoro-2-methylimidazo[1,2-a]pyridin-3-yl)-6-{[3-fluoro-4-(trifluoromethyl)phenyl]amino}pyridine-4-carbonitrile] | 
1 to 10 | 182 to 183 | Cc1nc2ccc(F)cn2c1-c1cc(N)cc(Nc2ccc(OC(F)F)c(F)c2)n1 [compound 315, N^2-[4-(difluoromethoxy)-3-fluorophenyl]-6-(6-fluoro-2-methylimidazo[1,2-a]pyridin-3-yl)pyridine-2,4-diamine] | 
10 to 100 | 230 to 231 | Cc1nc2ccc(F)cc2n1-c1cncc(Nc2ccc(OC(F)F)c(F)c2)n1 [compound 320, N-[4-(difluoromethoxy)-3-fluorophenyl]-6-(6-fluoro-2-methyl-1H-benzimidazol-1-yl)pyrazin-2-amine] | 
10 to 100 | 150 to 151 | CCn1nc(C(F)(F)F)c(-c2cncc(Nc3ccc(C(F)(F)F)cc3)n2)c1C [compound 329, 6-[1-ethyl-5-methyl-3-(trifluoromethyl)-1H-pyrazol-4-yl]-N-[4-(trifluoromethyl)phenyl]pyrazin-2-amine] | 
100 to 3000 | 128 to 129 | CCn1nc(C(F)(F)F)c(-c2cncc(Nc3ccc(OC(F)(F)F)cc3)n2)c1C [compound 331, 6-[1-ethyl-5-methyl-3-(trifluoromethyl)-1H-pyrazol-4-yl]-N-[4-(trifluoromethoxy)phenyl]pyrazin-2-amine] | 
10 to 100 | 59 to 60 | CCc1nn(C)c(CC)c1-c1cncc(Nc2ccc(C(F)(F)F)cc2)n1 [compound 332, 6-(3,5-diethyl-1-methyl-1H-pyrazol-4-yl)-N-[4-(trifluoromethyl)phenyl]pyrazin-2-amine] | 
10 to 100 | 122 to 123 | CCc1nn(C)c(CC)c1-c1cncc(Nc2ccc(OC(F)(F)F)cc2)n1 [compound 334, 6-(3,5-diethyl-1-methyl-1H-pyrazol-4-yl)-N-[4-(trifluoromethoxy)phenyl]pyrazin-2-amine] | 
1 to 10 | 172 to 174 | Cc1nn(CCO)c(C)c1-c1cncc(Nc2ccc(C(F)(F)F)cc2)n1 [compound 335, 2-[3,5-dimethyl-4-(6-{[4-(trifluoromethyl)phenyl]amino}pyrazin-2-yl)-1H-pyrazol-1-yl]ethanol] | 
1 to 10 | 183 to 185 | Fc1ccc2nc(C3CC3)c(-c3cncc(Nc4ccc(C(F)(F)F)cc4)n3)n2c1 [compound 336, 6-(2-cyclopropyl-6-fluoroimidazo[1,2-a]pyridin-3-yl)-N-[4-(trifluoromethyl)phenyl]pyrazin-2-amine] | 
< 1 | 183 to 185 | Fc1ccc2nc(C3CC3)c(-c3cncc(Nc4ccc(OC(F)F)cc4)n3)n2c1 [compound 337, 6-(2-cyclopropyl-6-fluoroimidazo[1,2-a]pyridin-3-yl)-N-[4-(difluoromethoxy)phenyl]pyrazin-2-amine] | 
1 to 10 | 173 to 175 | Fc1ccc2nc(C3CC3)c(-c3cncc(Nc4ccc(OC(F)F)c(F)c4)n3)n2c1 [compound 338, 6-(2-cyclopropyl-6-fluoroimidazo[1,2-a]pyridin-3-yl)-N-[4-(difluoromethoxy)-3-fluorophenyl]pyrazin-2-amine] | 
10 to 100 | 245 to 247 | N#Cc1cc(Nc2ccc(C(F)(F)F)cc2)nc(-c2c(C3CC3)nc3ccc(F)cn23)c1 [compound 346, 2-(2-cyclopropyl-6-fluoroimidazo[1,2-a]pyridin-3-yl)-6-{[4-(trifluoromethyl)phenyl]amino}pyridine-4-carbonitrile] | 

SMILES | EC50 (Bmi-1 protein; [1]) [nM] | melting point [°C] | EC50 (Bmi-1 protein; [2]) [nM]
FC(F)(F)c1ccc(Nc2cncc(-c3c(C4CC4)nc4ccc(C(F)(F)F)cn34)n2)cc1 [compound 250, 6-[2-cyclopropyl-6-(trifluoromethyl)imidazo[1,2-a]pyridin-3-yl]-N-[4-(trifluoromethyl)phenyl]pyrazin-2-amine] |  | 240 to 241 | 10 to 100
Cc1nn(CC(F)(F)F)c(C)c1-c1cncc(Nc2ccc(C(F)(F)F)cc2)n1 [compound 253, 6-[3,5-dimethyl-1-(2,2,2-trifluoroethyl)-1H-pyrazol-4-yl]-N-[4-(trifluoromethyl)phenyl]pyrazin-2-amine] |  | 90 to 91 | 1 to 10
Cc1nc2ccc(F)cn2c1-c1cc(N)cc(Nc2ccc(C(F)(F)F)cc2)n1 [compound 316, 6-(6-fluoro-2-methylimidazo[1,2-a]pyridin-3-yl)-N^2-[4-(trifluoromethyl)phenyl]pyridine-2,4-diamine] |  | 161 to 163 | 1 to 10
